Among the data in patent US20140128380A1, “METHODS OF MODULATING THE ACTIVITY OF THE MC1 RECEPTOR AND TREATMENT OF CONDITIONS RELATED TO THIS RECEPTOR” (Mimetica Pty Ltd, priority 2009, published 2014) are IC50 values, retold here.

For the experiment, the target named is T1, human MC1R (hMC1R) (Homo sapiens, UniProt Q01726).
T1 construct: purchased Perkin Elmer ES-195-M400UA
T1 sequence (Q01726 whole entry): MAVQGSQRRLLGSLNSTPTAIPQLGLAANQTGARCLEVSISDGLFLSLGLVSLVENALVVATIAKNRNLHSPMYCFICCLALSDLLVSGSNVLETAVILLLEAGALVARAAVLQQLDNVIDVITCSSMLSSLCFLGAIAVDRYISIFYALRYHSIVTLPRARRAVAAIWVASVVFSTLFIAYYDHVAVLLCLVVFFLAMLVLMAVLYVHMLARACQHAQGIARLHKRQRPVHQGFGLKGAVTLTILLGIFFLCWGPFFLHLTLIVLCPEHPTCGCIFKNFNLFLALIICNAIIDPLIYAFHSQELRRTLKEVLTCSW
Kind of experiment: Human MC1R radioligand binding assay (displacement of 125I-labeled NDP-MSH, Perkin Elmer hMC1R membranes). The note with it: displacement of [125I]NDP-MSH, compounds tested as trifluoroacetate or hydrochloride salts or free base. Here is the method: Assessments of compound binding to human MC1R (hMC1R)) by displacement of an ^125I-labeled NDP-MSH receptor ligand peptide were performed essentially as described in the data sheets produced by Perkin Elmer to accompany their frozen hMC1R membranes (Perkin Elmer catalog number ES-195-M400UA).
[^125I] NDP-MSH: radiolabeled in house and purified by HPLC:
Na ^125I (0.5 mCi, 17.4 Ci/mg) was added to 50 μL sodium phosphate (50 mM, pH 7.4) in an eppendorf tube precoated with IODOGEN. After incubation for 10 mins the phosphate buffer containing the iodine was added to NDP-MSH (10 ul at 1 mg/mL) in a separate eppendorf tube. This was incubated for a further 10 mins. The iodinated NDP-MSH was purified by HPLC on a Zorbax SB 300 column using solvent A: 0.05% TFA and solvent B: 90% acetonitrile 0.045% TFA with a linear gradient, 0-67% B over 60 mins.
Perkin Elmer frozen hMC1 membranes: catalog number ES-195-M400UA, 0.4 mL/vial; 400 microassays/vial, 0.78 mg/mL protein concentration
Vials of frozen membranes were thawed rapidly immediately before use, diluted with binding buffer and vortexed. Resuspended membranes were kept on ice until they were added to the wells of the plate.
Assays were performed in 96 well polypropylene plates. […] This was incubated for 1 hr at 37° C.
As usually defined, the IC50 is the concentration that inhibits the measured activity by half. For `CCC(CN1CC[C@@H](CNC(=O)c2ccc3ccccc3c2)N[C@@H](CCN)C1=O)c1ccccc1` (mixture of isomers) [Compound 102, N-(((3S,5S)-3-(2-aminoethyl)-2-oxo-1-(2-phenylbutyl)-1,4-diazepan-5-yl)methyl)-2-naphthamide], the IC50 was < 10 µM. In the case of `N=C(N)NCCC[C@@H]1N[C@H](CNC(=O)c2ccc3ccccc3c2)CCN(Cc2cc(Cl)cc(Cl)c2)C1=O` [Compound 100, N-(((3S,5S)-1-(3,5-dichlorobenzyl)-3-(3-guanidinopropyl)-2-oxo-1,4-diazepan-5-yl)methyl)-2-naphthamide], the IC50 is < 10 µM. Turning to `O=C(/C=C/c1ccc(Cl)cc1)NC[C@@H]1CCN(CC(c2ccccc2)c2ccccc2)C(=O)[C@H](CCN2CCCCC2)N1` [Compound 101, (E)-3-(4-chlorophenyl)-N-(((3S,5S)-1-(2,2-diphenylethyl)-2-oxo-3-(2-(piperidin-1-yl)ethyl)-1,4-diazepan-5-yl)methyl)acrylamide], the IC50 was < 10 µM.

`N=C(N)NCCC[C@@H]1N[C@H](CNS(=O)(=O)c2ccc3ccccc3c2)CCN(CC(c2ccccc2)c2ccccc2)C1=O` [Compound 103, N-(((3S,5S)-1-(2,2-diphenylethyl)-3-(3-guanidinopropyl)-2-oxo-1,4-diazepan-5-yl)methyl)naphthalene-2-sulfonamide]: the IC50 was < 10 µM.

Turning to `CN(C[C@@H]1CCN(CC(c2ccccc2)c2ccccc2)C(=O)[C@H](CCCN)N1)C(=O)c1ccc2cc(Br)ccc2c1` [Compound 104, N-(((3S,5S)-3-(3-aminopropyl)-1-(2,2-diphenylethyl)-2-oxo-1,4-diazepan-5-yl)methyl)-6-bromo-N-methyl-2-naphthamide], the IC50 was < 10 µM. Regarding `CN1[C@H](CNC(=O)c2ccc3cc(Br)ccc3c2)CCN(CC(c2ccccc2)c2ccccc2)C(=O)[C@@H]1CCCN` [Compound 105, N-(((3S,5S)-3-(3-aminopropyl)-1-(2,2-diphenylethyl)-4-methyl-2-oxo-1,4-diazepan-5-yl)methyl)-6-bromo-2-naphthamide], the IC50 is < 10 µM. In the case of `N=C(N)NCCC[C@@H]1N[C@H](CNC(=O)c2ccc3ccccc3c2)CCN(CC(c2ccccc2)c2ccccc2)C1=O` [Compound 107, N-(((3S,5S)-1-(2,2-diphenylethyl)-3-(3-guanidinopropyl)-2-oxo-1,4-diazepan-5-yl)methyl)-2-naphthamide], the IC50 was < 10 µM.

In the case of `N=C(N)NCCC[C@@H]1N[C@H](CNC(=O)c2ccc(-c3ccccc3)cc2)CCN(CC(c2ccccc2)c2ccccc2)C1=O` [Compound 108, N-(((3S,5S)-1-(2,2-diphenylethyl)-3-(3-guanidinopropyl)-2-oxo-1,4-diazepan-5-yl)methyl)biphenyl-4-carboxamide], the half-maximal inhibitory concentration (IC50) was < 10 µM. On to `N=C(N)NCCC[C@@H]1N[C@H](CNC(=O)c2cnc3ccccc3c2)CCN(CC(c2ccccc2)c2ccccc2)C1=O` [Compound 109, N-(((3S,5S)-1-(2,2-diphenylethyl)-3-(3-guanidinopropyl)-2-oxo-1,4-diazepan-5-yl)methyl)quinoline-3-carboxamide], for which the IC50 was < 10 µM.

Take `N=C(N)NCCC[C@@H]1N[C@H](CNC(=O)c2cccc(Oc3ccccc3)c2)CCN(CC(c2ccccc2)c2ccccc2)C1=O` [Compound 111, N-(((3S,5S)-1-(2,2-diphenylethyl)-3-(b3-guanidinopropyl)-2-oxo-1,4-diazepan-5-yl)methyl)-3-phenoxybenzamide]: the 50% inhibitory concentration (IC50) is < 10 µM. With `N=C(N)NCCC[C@@H]1N[C@H](CNC(=O)c2cc3ccccc3[nH]2)CCN(CC(c2ccccc2)c2ccccc2)C1=O` [Compound 113, N-(((3S,5S)-1-(2,2-diphenylethyl)-3-(3-guanidinopropyl)-2-oxo-1,4-diazepan-5-yl)methyl)-1H-indole-2-carboxamide], the 50% inhibitory concentration (IC50) was < 10 µM. Consider `CC(C)(C)c1ccc(C(=O)NC[C@@H]2CCN(CC(c3ccccc3)c3ccccc3)C(=O)[C@H](CCCNC(=N)N)N2)cc1` [Compound 114, 4-tert-butyl-N-(((3S,5S)-1-(2,2-diphenylethyl)-3-(3-guanidinopropyl)-2-oxo-1,4-diazepan-5-yl)methyl)benzamide], for which the IC50 is < 10 µM. As to `COc1c(C(=O)NC[C@@H]2CCN(CC(c3ccccc3)c3ccccc3)C(=O)[C@H](CCCNC(=N)N)N2)ccc2ccccc12` [Compound 115, N-(((3S,5S)-1-(2,2-diphenylethyl)-3-(3-guanidinopropyl)-2-oxo-1,4-diazepan-5-yl)methyl)-1-methoxy-2-naphthamide], the IC50 was < 10 µM. On to `CN(C)C(=N)NCCC[C@@H]1N[C@H](CNC(=O)c2ccc3ccccc3c2)CCN(CC(c2ccccc2)c2ccccc2)C1=O` [Compound 117, N-(((3S,5S)-3-(3-(3,3-dimethylguanidino)propyl)-1-(2,2-diphenylethyl)-2-oxo-1,4-diazepan-5-yl)methyl)-2-naphthamide], for which the IC50 was < 10 µM. As to `CC(=O)N[C@@H](Cc1c[nH]cn1)C(=O)N[C@@H](Cc1ccccc1)[C@@H]1CCN(CCc2c[nH]c3ccccc23)C(=O)[C@H](CCCNC(=N)N)N1` [Compound 118, (S)—N—((S)-1-((3S,5S)-1-(2-(1H-indol-3-yl)ethyl)-3-(3-guanidinopropyl)-2-oxo-1,4-diazepan-5-yl)-2-phenylethyl)-2-acetamido-3-(1H-imidazol-4-yl)propanamide], the half-inhibitory concentration (IC50) was < 10 µM. As to `Cc1ccc(/C=C/C(=O)NC[C@@H]2CCN(CC(c3ccccc3)c3ccccc3)C(=O)[C@H](CCCN)N2)cc1` [Compound 120, (E)-N-(((3S,5S)-3-(3-aminopropyl)-1-(2,2-diphenylethyl)-2-oxo-1,4-diazepan-5-yl)methyl)-3-p-tolylacrylamide], the half-maximal inhibitory concentration (IC50) was < 10 µM. `NCCC[C@@H]1N[C@H](CNC(=O)/C=C/c2ccc(F)cc2)CCN(CC(c2ccccc2)c2ccccc2)C1=O` [Compound 121, (E)-N-(((3S,5S)-3-(3-aminopropyl)-1-(2,2-diphenylethyl)-2-oxo-1,4-diazepan-5-yl)methyl)-3-(4-fluorophenyl)acrylamide]: the IC50 was < 10 µM.

As for `NCCC[C@@H]1N[C@H](CNC(=O)c2ccc3cc(F)ccc3c2)CCN(CC(c2ccccc2)c2ccccc2)C1=O` [Compound 122, N-(((3S,5S)-3-(3-aminopropyl)-1-(2,2-diphenylethyl)-2-oxo-1,4-diazepan-5-yl)methyl)-6-fluoro-2-naphthamide], the IC50 was < 10 µM.

With `NCCC[C@@H]1N[C@H](CNC(=O)c2ccc(Cl)c(Cl)c2)CCN(CC(c2ccccc2)c2ccccc2)C1=O` [Compound 123], the IC50 is < 10 µM. Turning to `O=C(NC[C@@H]1CCN(CC(c2ccccc2)c2ccccc2)C(=O)[C@H](CCCNC2CCCCC2)N1)c1ccc2ccccc2c1` [Compound 124, N-(((3S,5S)-3-(3-(cyclohexylamino)propyl)-1-(2,2-diphenylethyl)-2-oxo-1,4-diazepan-5-yl)methyl)-2-naphthamide], the IC50 is < 10 µM. Next, `N=C(N)NCCC[C@@H]1N[C@H](CNC(=O)c2ccc3ccccc3c2)CCN(c2ccc3ccccc3c2)C1=O` [Compound 125, N-(((3S,5S)-3-(3-guanidinopropyl)-1-(naphthalen-2-yl)-2-oxo-1,4-diazepan-5-yl)methyl)-2-naphthamide]: < 10 µM; `N=C(N)NCCC[C@@H]1N[C@H](CNC(=O)c2ccc3ccccc3c2)CCN(CC2c3ccccc3-c3ccccc32)C1=O` [Compound 126, N-(((3S,5S)-1-((9H-fluoren-9-yl)methyl)-3-(3-guanidinopropyl)-2-oxo-1,4-diazepan-5-yl)methyl)-2-naphthamide]: < 10 µM; `O=C(/C=C/c1ccc(F)cc1)NC[C@@H]1CCN(CC(c2ccccc2)c2ccccc2)C(=O)[C@H](CCCNC2CCCCC2)N1` [Compound 127, (E)-N-(((3S,5S)-3-(3-(cyclohexylamino)propyl)-1-(2,2-diphenylethyl)-2-oxo-1,4-diazepan-5-yl)methyl)-3-(4-fluorophenyl)acrylamide]: < 10 µM. Consider `NCCC[C@@H]1N[C@H](CNC(=O)c2ccc(-c3ccc(Cl)cc3)o2)CCN(CC(c2ccccc2)c2ccccc2)C1=O` [Compound 128], for which the IC50 is < 10 µM. Turning to `NCCC[C@@H]1N[C@H](CNC(=O)c2cc(-c3ccc(Cl)cc3)on2)CCN(CC(c2ccccc2)c2ccccc2)C1=O` [Compound 129], the IC50 is < 10 µM. The same measure for `N=C(N)NCCC[C@@H]1N[C@H](CNC(=O)c2ccc3ccccc3c2)CCN(CCC2CCCCC2)C1=O` [Compound 130, N-(((3S,5S)-1-(2-cyclohexylethyl)-3-(3-guanidinopropyl)-2-oxo-1,4-diazepan-5-yl)methyl)-2-naphthamide]: < 10 µM; for `N=C(N)NCCC[C@@H]1N[C@H](CNC(=O)c2ccc3ccccc3c2)CCN(CCC2CC3CCC2C3)C1=O` (stereo partly drawn) [Compound 131, N-(((3S,5S)-1-(2-(bicyclo[2.2.1]heptan-2-yl)ethyl)-3-(3-guanidinopropyl)-2-oxo-1,4-diazepan-5-yl)methyl)-2-naphthamide]: < 10 µM; for `O=C(/C=C/c1ccc(Cl)cc1)NC[C@@H]1CCN(CC(c2ccccc2)c2ccccc2)C(=O)[C@H](CCCN2CCCCC2)N1` [Compound 132, (E)-3-(4-chlorophenyl)-N-(((3S,5S)-1-(2,2-diphenylethyl)-2-oxo-3-(3-(piperidin-1-yl)propyl)-1,4-diazepan-5-yl)methyl)acrylamide]: < 10 µM.
